Laboratory results: PubChem BioAssay (NCI)
“And” between values parts separate entries of the source, which are not always exact repeats. Equal entries are not always repeated.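 Dose response: 5 concentrations. Exposure: 48 h. Format: 96-well plates. Endpoint: linear interpolation; highest concentration if not reached. At the GI50, growth is halved. Definition used: TGI = concentration required for complete inhibition of growth.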

What was measured:
Assay in all cases: NCI tumour cell line growth inhibition, 48 h
BT-549 breast = tested on: BT-549 breast
TK-10 renal = tested on: TK-10 renal
NCI-H460 lung = tested on: NCI-H460 lung
A549 NSCLC = tested on: A549 NSCLC
NCI-H522 lung = tested on: NCI-H522 lung
MCF7 breast = tested on: MCF7 breast
LOX IMVI melanoma = tested on: LOX IMVI melanoma
SF-295 CNS = tested on: SF-295 CNS

| SMILES | GI50 (BT-549 breast) | TGI (BT-549 breast) | GI50 (TK-10 renal) | TGI (TK-10 renal) | GI50 (NCI-H460 lung) | TGI (NCI-H460 lung) | GI50 (A549 NSCLC) | TGI (A549 NSCLC) | GI50 (NCI-H522 lung) | TGI (NCI-H522 lung) | GI50 (MCF7 breast) | TGI (MCF7 breast) | GI50 (LOX IMVI melanoma) | TGI (LOX IMVI melanoma) | GI50 (SF-295 CNS) | TGI (SF-295 CNS) |
| --- | --- | --- | --- | --- | --- | --- | --- | --- | --- | --- | --- | --- | --- | --- | --- | --- |
| O=C(Oc1ccccc1Cl)c1ccccc1Nc1cccc(C(F)(F)F)c1 | 18.3 µM | 52.6 µM | 32.7 µM | 67.9 µM | 37.3 µM | > 100 µM | 36 µM | > 100 µM | 19.5 µM | 52.4 µM | 33.9 µM | > 100 µM | 11.9 µM | 33.5 µM | 24.8 µM | 54.3 µM |
| COc1ccc(C2=N[C@@H](c3ccc(Cl)cc3)[C@@H](c3ccc(Cl)cc3)N2C(=O)N2CCNC(=O)C2)c(OC(C)C)c1 | 12.6 µM and 14.9 µM and 15.4 µM | 25.7 µM and 29.2 µM and 29.9 µM | 16.1 µM and 14.6 µM and 14.8 µM | 29.9 µM and 27.7 µM and 28 µM | 14.8 µM and 3.04 µM and 2.17 µM | 29.9 µM and 16.3 µM and 14.8 µM | 13.3 µM and 3.9 µM and 3.65 µM | 27.4 µM and 18.4 µM and 17.4 µM | 14.6 µM and 13.6 µM and 16.3 µM | 28.5 µM and 27.3 µM and 31.1 µM | 13 µM and 2.43 µM and 2.27 µM | 28.2 µM and 12.9 µM and 13 µM | 13.8 µM and 4.07 µM and 2.81 µM | 27.4 µM and 19.3 µM and 18.3 µM | 12.6 µM and 12.9 µM and 14.9 µM | 27.3 µM and 26.8 µM and 30.4 µM |
| COc1ccc(C(=O)/C=C/c2cc(-c3ccc4c(c3)OCO4)n[nH]2)cc1OC | 1.97 µM | 4.21 µM | 2.88 µM | 8.97 µM | 1.81 µM | 4.05 µM | 2.7 µM | 15.8 µM | 1.82 µM | 4.44 µM | 3.27 µM | 16.8 µM | 1.97 µM | 4.08 µM | 2.51 µM | 6.15 µM |
| O=C1/C(=C/c2ccc(Cl)cc2)CN(C(=O)CCN2CCC(=NO)CC2)C/C1=C\c1ccc(Cl)cc1 | 1.47 µM | 2.85 µM | 1.46 µM | 2.93 µM | 0.888 µM | 2.73 µM | 1.65 µM | 3.77 µM | 0.731 µM | 2.29 µM | 0.284 µM | 1.59 µM | 0.224 µM | 0.57 µM | 1.46 µM | 2.86 µM |
| O=C(c1ccco1)c1nc2cc(C(F)(F)F)ccc2[n+]([O-])c1C(F)(F)F | 63 µM | > 100 µM | 50.8 µM | > 100 µM | 61 µM | > 100 µM | > 100 µM | > 100 µM | 34.1 µM | > 100 µM | 6.57 µM | > 100 µM | 40.1 µM | > 100 µM | 51.3 µM | > 100 µM |
| Oc1ccc(Oc2cnc3cc(Cl)ccc3n2)cc1 | 20.9 µM | > 100 µM | > 100 µM | > 100 µM | 20.1 µM | 53.1 µM | 61.8 µM | > 100 µM | 19.1 µM | > 100 µM | 38.1 µM | > 100 µM | 34.9 µM | > 100 µM | 22.6 µM | 74.5 µM |
| CN(C)c1ccc(Nc2c3ccccc3nc3cc(NC(=O)CCN4CCCC4)ccc23)cc1 | 1.3 µM | 2.73 µM | 1.13 µM | 3 µM | 0.0423 µM | 0.683 µM | 0.0688 µM | 1.75 µM | 0.541 µM | 2.21 µM | 0.0711 µM | 1.61 µM | 0.21 µM | 1.46 µM | 0.362 µM | 1.51 µM |
